According to US5225420A, “Use of tetrahydrothienopyridine derivatives as angiogenesis inhibitors” (Elf-Sanofi, priority 1991, dated 1993):
pIC50: −log10 of the molar value. Read-outs that look alike come from different tables or passages of the source.

Legend:
[1] = test system: bovine cerebral cortex capillary endothelial cells; assay: Inhibition of rb-FGF-stimulated capillary endothelial cell proliferation (in vitro test); type: cell-based; conditions: 1 ng/ml rb-FGF, cell counting 5 days after addition of test product, read-out: IC50 (50% inhibition of cell proliferation)
Experimental: A nutrient medium (Dulbecco's modified Eagle medium-DMEM), supplemented with fetal calf serum (concentration: 5% V/V) and containing glutamine (4 mM), penicillin (100 U/ml) and streptomycin sulphate (100 μg/ml), is introduced into 1-ml wells and innoculated with bovine cerebral cortex capillary endothelial cells (20×10^3 cells/ml), isolated and cultured as described by D. Gospodarowicz et al. in J. Cell. Physiol. 127, p. 121-136 (1986).
As soon as cell adhesion has taken place, 1 ng/ml of recombinant bovine basic fibroblast growth factor (rb-FGF), marketed by Amersham, a known factor for the stimulation of angiogenesis in vivo, is added, followed by the test solutions.
Cell counting is performed 5 days after the addition of 20 μl of a solution of the test products in dimethyl sulphoxide such that their final concentration in the medium is between 10^-4 and 10^-8 M; the control wells receive 20 μl of solvent.
From the results obtained for several concentrations of each of the test products, the concentration at which the latter produce a 50% inhibition of cell proliferation is calculated in a conventional manner.

[2] = test system: angiogenic response induced by fibrin gels; conditions: rat
Experimental: (§1) Perforated Plexiglas chambers containing a fibrin gel, obtained by polymerisation of rat fibrinogen in the presence of thrombin, are implanted subcutaneously in rats.
The test products, suspended in absolute alcohol and 5% gum arabic (10 ml/kg), are administered orally to the rats at doses of 5 and 25 mg/kg/day for the compounds of Examples 3 and 4, for 5 days before implantation and up to the time of removal of the chambers. After 14 days, a granulation outgrowth is formed, and the chambers are removed in order to observe the height of the granulation outgrowth anchored in the matrix and the quantity of newly-formed vessels which have appeared.
(§2) The inhibition of the angiogenic response was evaluated by:
(§3) (i) the height and diameter of the granulation outgrowths,
(§4) (ii) the number of newly-formed vessels per outgrowth and their localisation,
(§5) (iii) the quality of the granulation tissue.

platelet aggregation = conditions: described in EP-A-0 281,459; cited from earlier work
[3] = test system: angiogenic response induced by fibrin gels; conditions: rat, treatment begun after 14 days
Experimental: as §1, §2, §3, §4, §5

[4] = Bos taurus, Endothelial cell, 120 h

Compound | pIC50 [1, 4] | pIC50 [1] | effectiveness on height of granulation outgrowths ([2]; 5 mg/kg/day oral) | inhibition of height of the granulation outgrowths ([2]; 25 mg/kg/day oral) [%] | lowering of number of newly-formed vessels per outgrowth ([2]; 25 mg/kg/day oral) [%] | also measured
COC(=O)C(c1ccccc1Cl)N1CCc2sccc2C1 (centres unmarked) [Compound 2] | 8.64 | – | – | – | – | –
CCOC(=O)C(c1ccccc1Cl)N1CCc2sccc2C1 (centres unmarked) [Compound 5] | 7.15 | – | – | – | – | –
CCCCOC(=O)C(c1ccccc1Cl)N1CCc2sccc2C1 (centres unmarked) [Compound 6] | 6.66 | – | – | – | – | –
O=C(O)C(c1ccccc1Cl)N1CCc2sccc2C1 (single isomer, unassigned) [Compound 1] | 6.22 | – | – | – | – | –
COC(=O)C(c1ccccc1Cl)N1CCc2sccc2C1 (single isomer, unassigned) [Compound 4, laevorotatory isomer of methyl alpha-(4,5,6,7-tetrahydrothieno[3,2-c]pyrid-5-yl)-alpha-(2-chlorophenyl)acetate] | – | 8.43 | in contrast to the latter compound | 30 | 60 | platelet aggregation inhibition (platelet aggregation): inactive
COC(=O)C(c1ccccc1Cl)N1CCc2sccc2C1 (single isomer, unassigned) [Compound 3] | – | 9.10 | remains effective | 50 | 90 | angiogenesis-inhibiting activity ([2]; 5 mg/kg/day oral): still very active; inhibition of height of the granulation outgrowths ([2]; 5 mg/kg/day oral): 50%; lowering of number of newly-formed vessels per outgrowth ([2]; 5 mg/kg/day oral): 50%; angiogenesis-inhibiting activity (comparison with compound No. 4) ([2]; 25 mg/kg/day oral): markedly more active than its homologue, the compound No. 4; quality of the granulation tissue ([2]; oral, dose not given): more loose-textured and disorganised; activity on regression of angiogenesis ([3]; 5 mg/kg/day): still very active; activity on regression of angiogenesis (comparison with compound No. 4) ([3]; 25 mg/kg/day): markedly more active than its homologue, the compound No. 4
